In patent EP4711371A1 (priority 2023, dated 2024) one finds IC50 data, which are given here for 15 compounds.

Where two headings read alike, the source gives them in different places.

Type in all cases: cell-based
The test system of assay [1] is T47D. Briefly: cells. The following applies: Homo sapiens, 96 h. The text has this:
(§1) The control compounds used in the experiment were DXD (synthesized from EXD according to the synthesis method of patent EP2907824B1. EXD was purchased from MedChemExpress, catalog number: HY-13631A) and SN38 (purchased from Bide Pharmatech, catalog number BD8481). Their structural formulas are [drawing 515] respectively.
(§2) The cell lines used in this experiment were human breast cancer cells SK-BR-3, T47D, MDA-MB-453, human malignant melanoma cells A375, human lung squamous carcinoma cells NCI-H1703, and human gastric cancer cells NCI-N87. Cell suspensions were prepared in fresh cell culture medium containing 10% FBS and then diluted to a density of 5 × 10^4 cells/mL, 10×10^4 cells/mL, 100 µL per well was added to a 96-well cell culture plate (Thermo catalog number: 167425), and cultured at 37°C with 5% carbon dioxide for 24 h.
(§3) The test compounds of the present invention and the control compounds were each prepared to 10 mM stock solutions in DMSO, and the drugs were diluted with 5% FBS 1640 culture medium in a gradient of 50, 10, 2, 0.4, 0.08, 0.016, 0.0032, 0.00064, 0.000128, and 0 µM, with two replicates for each well.
(§4) 50 µL of cell supernatant was pipetted from each 96-well plate, followed by the addition of 50 µL of compound dilutions at final […] of 25, 5, 1, 0.2, 0.04, 0.008, 0.0016, 0.00032, 0.000064, and 0 µM. After mixing, the cells were cultured in a constant temperature CO2 incubator for 4 days. Cell supernatant was then added with 100 µL of detection reagent (5% FBS1640 medium and CCK-8 solution in a 10:1 ratio) and incubated in an incubator for 4 hours. […] was read on a microplate reader (TECAN, Spark), and data were analyzed using Graphpad Prism 8 software.

For a further assay, the system named is NCI-H1703. Briefly: In vitro proliferation inhibition assay of camptothecin derivatives (Payload), Test Example 1. The following applies: Homo sapiens, NCI-H1703, 96 h, read-out: NCI-H1703 IC50.
From the text: as §1, §2, §3, §4

A further assay has as its system A375. The assay is described as above. The following applies: Homo sapiens, A-375, 96 h, read-out: A375 IC50.
From the text: as §1, §2, §3, §4

Assay [2] deals with MDA-MB-453. The description is as above. The note with it: Homo sapiens, MDA-MB-453, 96 h, read-out: MDA-MB-453 IC50.
From the text: as §1, §2, §3, §4

The subject of another assay is HT1376. Briefly: In vitro proliferation inhibition assay of camptothecin derivatives (Payload), Test Example 2. The note with it: Homo sapiens, HT-1376, 120 h, read-out: HT1376 IC50. Here is the method: (§5) Test Example 2 In vitro proliferation inhibition assay of the camptothecin derivatives (Payload) of the present invention on tumor cells 1. Instruments and Reagents
(§6) 2. Experimental Procedure • a. Plating & culture: MDA-MB-453 (purchased from: Xiehe, catalog number: 1101HUM-PUMCO00016)/T47D (Kebai, CBP60397)/HT1376 cells (purchased from: Kebai, catalog number: CBP60310) were cultured into 96-well plates by a density of 1×10^3 /2×10^3 /1×10^3 cells per100 µL, and 200 µL of PBS was added to the outermost circle (to reduce the volatilization of the culture medium), and cultured at 37°C, 5% CO2 incubator for 24 h; • b. Drug Addition & Incubation: The 96-well flat-bottom plate was retrieved. The culture medium in the wells was aspirated, and 100 µL of the ADC drug/payload (diluted in culture medium) was added to each well. The plate was then incubated at 37°C, 5% CO2 incubator for 5 days. 3. Detection and data processing • a. The 96-well plate was retrieved. The culture medium was removed, and 100 µL of detection reagent (CCK8:medium= 1:9) was added to each well. The plate was then placed in a 37°C, 5% CO2 incubator for 4 hours; • b. The optical density (OD) at 450 nm was measured using a microplate reader (model: CEY0017), and the data was recorded with Excel. • c. Graphpad Prism 9.0 was used to analyze and organize the data.

Assay [3] has as its system MDA-MB-453. The description is as above. The following applies: Homo sapiens, MDA-MB-453, 120 h, read-out: MDA-MB-453 IC50. Here is the method:
as §5, §6

Assay [4] deals with T47D. Briefly: cells. The following applies: Homo sapiens, 120 h, read-out: T47D IC50. The method, then: as §5, §6
A further assay deals with SK-BR-3. Briefly: In vitro proliferation inhibition assay of camptothecin derivatives (Payload), Test Example 1. The following applies: Homo sapiens, SK-BR-3, 96 h, read-out: SK-BR-3 IC50.
From the text: as §1, §2, §3, §4

For another assay, the system named is NCI-N87. The description is as above. The note with it: Homo sapiens, NCI-N87, 96 h, read-out: NCI-N87 IC50.
From the text: as §1, §2, §3, §4

Where [5] appears, read: payload, cultured 4 days, CCK-8, read-out: T47D IC50.
Setting [6] is: payload, cultured 4 days, CCK-8.
Setting [7] is: payload, cultured 4 days, CCK-8, ~ indicates estimated IC50 value.

The term IC50 denotes the concentration needed to halve the response being measured. Regarding `CC[C@@]1(OC(=O)CCOCCOCCOCCOC)C(=O)OCc2c1cc1n(c2=O)Cc2c-1nc1cc(F)c(C)c3c1c2[C@@H](N)CC3` [Compound 7], the IC50 with T47D [1] (setting [5]) was 245 nM; in the assay on NCI-H1703 (setting [6]), 0.064 nM; in the assay on A375 (setting [7]), 0.714 nM; in the assay on MDA-MB-453 [2] (setting [6]) it was 570 nM.

In the case of `CC[C@@]1(O)C(=O)OCc2c1cc1n(c2=S)Cc2c-1nc1cc(F)c(C)cc1c2CN` [Compound 11], the IC50 in the assay on HT1376 came to 3.85 nM; in the assay on MDA-MB-453 [3], 0.645 nM; in the assay on T47D [4], 0.141 nM; in the assay with SK-BR-3 it was 0.906 nM; in the assay on NCI-N87, 1.56 nM.

Take `CC[C@@]1(O)C(=O)OCc2c1cc1n(c2=O)Cc2c-1nc1cc(F)c(C)c3c1c2[C@@H](NC(=O)CO)CC3` [DXD, Dxd, reference compound]: the IC50 came out at 1.02 nM with T47D [1] (read-out: T47D IC50); 3.62 nM in the assay with SK-BR-3; 5.97 nM with NCI-N87; 0.472 nM with NCI-H1703; 0.131 nM with A375; 2.87 nM in the assay on MDA-MB-453 [2].

For `CC[C@@]1(OC(=O)COc2ccc(Cl)cc2C)C(=O)OCc2c1cc1n(c2=O)Cc2c-1nc1cc(F)c(C)c3c1c2[C@@H](N)CC3` [Compound 9], the IC50 in the assay on T47D [1] (setting [5]) worked out at 0.804 nM; with NCI-H1703 (setting [6]), 0.149 nM; in the assay on MDA-MB-453 [2] (setting [6]), 3.86 nM.

In the case of `CC[C@@]1(OC(=O)CCN2CCN(C)CC2)C(=O)OCc2c1cc1n(c2=O)Cc2c-1nc1cc(F)c(C)c3c1c2[C@@H](N)CC3` [Compound 2], the IC50 amounted to 1.56 nM in the assay on SK-BR-3 (setting [6]) and 3.75 nM in the assay with NCI-N87 (setting [6]).

On to `CCc1c2c(nc3ccc(O)cc13)-c1cc3c(c(=O)n1C2)COC(=O)[C@]3(O)CC` [SN38, SN-38, reference compound], for which the half-inhibitory concentration (IC50) turned out to be 2.11 nM with T47D [1] (read-out: T47D IC50), 2.51 nM with SK-BR-3 (setting [6]), 5.38 nM in the assay on NCI-N87 (setting [6]) and 32.8 nM in the assay with MDA-MB-453 [2] (setting [6]).

In the case of `CC[C@@]1(O)C(=O)OCc2c1cc1n(c2=S)Cc2cc3cc(N)c(F)cc3nc2-1` [Example 46], the IC50 worked out at 0.0155 nM with SK-BR-3 and 0.229 nM in the assay with NCI-N87.

Turning to `CC[C@@]1(O)C(=O)OCc2c1cc1n(c2=O)Cc2c-1nc1cc(F)c(C)c3c1c2[C@@H](N)CC3` [EXD, Exatecan, reference compound], the IC50 in the assay with HT1376 came out at 8.71 nM; in the assay with MDA-MB-453 [3] it was 0.902 nM; with T47D [4], 0.221 nM; in the assay with T47D [1] (read-out: T47D IC50), 0.729 nM; in the assay on SK-BR-3, 0.866 nM; in the assay with NCI-N87, 1.45 nM. Moreover, the 50% inhibitory concentration (IC50) with NCI-H1703 came out at 0.00789 nM; in the assay with MDA-MB-453 [2] it was 1.02 nM.

Regarding `CC[C@@]1(OC(=O)CCN2C(=O)c3ccccc3C2=O)C(=O)OCc2c1cc1n(c2=O)Cc2c-1nc1cc(F)c(C)c3c1c2[C@@H](N)CC3` [Compound 4], the 50% inhibitory concentration (IC50) with SK-BR-3 (setting [6]) stood at 183 nM; with NCI-N87 (setting [6]), 381 nM.

Turning to `CCC1(OC(=O)Cc2ccc(OC3OC(CO)C(O)C(O)C3O)cc2)C(=O)OCc2c1cc1n(c2=O)Cc2c-1nc1cc(F)c(C)c3c1c2C(N)CC3` (stereo not drawn) [Compound 3], the IC50 turned out to be 1.04 nM in the assay with SK-BR-3 and 1.91 nM in the assay with NCI-N87.

For the compound `CCC1(O)CC(=O)OCc2c1cc1n(c2=O)Cc2c-1nc1cc(F)c(F)cc1c2CN` (stereo not drawn) [Example 49], the IC50 in the assay on T47D [1] (setting [5]) worked out at 11 nM; in the assay on MDA-MB-453 [2] (setting [6]) it was 24.5 nM.

With `CCC1(O)CC(=O)OCc2c1cc1n(c2=O)Cc2c-1nc1cc(F)c(C)cc1c2CN` (stereo not drawn) [Example 47], the figures for the IC50 in the assay on T47D [1] (setting [5]) and with MDA-MB-453 [2] (setting [6]) were 0.956 nM and 4.37 nM, respectively.

On to `CC[C@@]1(OC(=O)Cn2cc(F)c(=O)[nH]c2=O)C(=O)OCc2c1cc1n(c2=O)Cc2c-1nc1cc(F)c(C)c3c1c2[C@@H](N)CC3` [Compound 6], for which the IC50 was 0.742 nM in the assay with T47D [1] (setting [5]); 1.23 nM in the assay with SK-BR-3 (setting [6]); 2.23 nM in the assay with NCI-N87 (setting [6]); 0.59 nM in the assay on NCI-H1703 (setting [6]); 0.164 nM with A375 (setting [7]); 4.24 nM with MDA-MB-453 [2] (setting [6]).

As to `CC[C@@]1(O)C(=O)OCc2c1cc1n(c2=S)Cc2c-1nc1cc(F)c(C)cc1c2CNC(=O)CO` [Compound 17], the half-inhibitory concentration (IC50) in the assay with T47D [1] (read-out: T47D IC50) was 0.172 nM; with SK-BR-3 it was 0.675 nM; in the assay on NCI-N87, 0.999 nM; in the assay with MDA-MB-453 [2], 1.14 nM.

`CCC1(O)CC(=O)OCc2c1cc1n(c2=O)Cc2c-1nc1cc(F)c(C)cc1c2CCCCO` (stereo not drawn) [Example 48]: the half-maximal inhibitory concentration (IC50) came out at 0.832 nM in the assay with T47D [1] (setting [5]) and 17.7 nM with MDA-MB-453 [2] (setting [6]).
